Columns and labels:
[1] = test system: stable HCV 1b RLuc replicon cells (genotype 1b Con1 replicon); test: HCV genotype 1b RLuc replicon reporter assay; type: cell-based; details: Hepatitis C virus; stable genotype 1b Con1 RLuc replicon cells, 72 hours
How it was run: (§1)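 EC50 derived by non-linear regression of Renilla luciferase signal measured in lysates 72 h after adding 3-fold serial compound dilutions. Replicons: stable genotype 1b Con1 cells; transient Huh-Lunet transfections of NS5A chimeras—4a ED43 or 3a S52 in Con1, 2b MD2b-1 (M31) in JFH-1.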

[2] = test system: stable HCV 1a RLuc replicon cells (genotype 1a H77 replicon); test: HCV genotype 1a RLuc replicon reporter assay; type: cell-based; details: Hepatitis C virus; stable genotype 1a H77 RLuc replicon cells, 72 hours
[3] = test system: stable HCV 2a JFH-1 Rluc replicon cells (L31 present in NS5A); test: HCV genotype 2a JFH-1 RLuc replicon reporter assay; type: cell-based; details: Hepatitis C virus, 72 h, read-out: 2a JFH (nM)
[4] = test system: NS5A chimeric genotype 2a JFH-1 replicon with genotype 2a J6 strain NS5A gene (M31); test: HCV genotype 2a J6 NS5A chimeric replicon assay, transient (t); type: cell-based; details: Hepatitis C virus, 72 h, read-out: 2a J6 (t) (nM)
[5] = test system: NS5A chimeric genotype 2a JFH-1 replicon with genotype 2b MD2b-1 strain NS5A gene (M31); test: HCV genotype 2b NS5A chimeric replicon assay, stable (s); type: cell-based; details: Hepatitis C virus, 72 h, read-out: 2b (s) (nM)
[6] = test system: NS5A chimeric genotype 1b Con1 replicon with genotype 3a S52 strain NS5A gene; test: HCV genotype 3a NS5A chimeric replicon assay; type: cell-based; details: Hepatitis C virus, 72 h, read-out: 3a (nM)
How it was run: as §1

[7] = test system: NS5A chimeric genotype 1b Con1 replicon with genotype 4a ED43 strain NS5A gene; test: HCV genotype 4a NS5A chimeric replicon assay; type: cell-based; details: Hepatitis C virus, 72 h, read-out: 4a (s) (nM)
[8] = test system: L31V/Y93H in genotype 1b NS5A replicon; test: Resistance mutant replicon assay, genotype 1b NS5A L31V/Y93H; type: cell-based, HCV; details: Hepatitis C virus, read-out: 1b L31V/Y93H (nM)
Method: (§2) Evaluation of cell-based anti-HCV activity: Antiviral potency (EC50) was determined using a Renilla luciferase (RLuc)-based HCV replicon reporter assay. To perform the assay for genotype 1 and 2a JFH-1, stable HCV 1a RLuc replicon cells (harboring a dicistronic genotype 1a H77 replicon that encodes a RLuc reporter), stable HCV lb RLuc replicon cells (harboring a dicistronic genotype 1b Conl replicon that encodes a RLuc reporter), or stable HCV 2a JFH-1 Rluc replicon cells (harboring a dicistronic genotype 2a JFH-1 replicon that encodes a RLuc reporter; with L31 present in NS5A) were dispensed into 384-well plates for EC50 assays. To perform the assay for genotype 2a (with M31 present in NS5A) or 2b, NS5A chimeric genotype 2a JFH-1 replicons that encodes a RLuc-Neo reporter and either genotype 2a J6 strain NS5A gene or genotype 2b MD2b-1 strain NS5A gene (both with M31 present) respectively, were either transiently transfected (t) into Huh-Lunet cells or were established as stably replicating replicon cells (s) is provided. Either cells were dispensed into 384-well plates for EC50 assays. To perform the assay for genotype 3 and 4, NS5A chimeric genotype 1b Conl replicons that encodes a Pi-RLuc reporter and either genotype 3a S52 strain NS5A gene or genotype 4a ED43 strain NS5A gene respectively, were transiently transfected (t) into Huh-Lunet cells, which were subsequently dispensed into 384-well plates. Compounds were dissolved in DMSO at a concentration of 10 mM and diluted in DMSO either manually or using an automated pipeting instrument. Serially 3-fold diluted compounds were either manually mixed with cell culture media and added to the seeded cells or directly added to the cells using an automated instrument. DMSO was used as a negative (solvent; no inhibition) control, and the protease inhibitor ITMN-191 was included at a concentration >100×EC50 as a positive control. 72 hours later, cells were lysed and Renilla luciferase activity quantified as recommended by the manufacturer (Promega-Madison, Wis.). Non-linear regression was performed to calculate EC50 values.
(§3) To determine the antiviral potency (EC50) against resistance mutants, resistance mutations, including M28T, Q30R, Q30H, Q30E, L31M, Y93C, Y93H, and Y93N in genotype 1a NS5A, Y93H and L31V/Y93H in genotype 1b NS5A, and Y93H for in genotype 3a NS5A, were introduced individually into either 1a Pi-Rluc or 1b Pi-Rluc replicons by site directed mutagenesis. Replicon RNA of each resistant mutant was transiently transfected into Huh-7-derived cured-51 cells and antiviral potency was determined on these transfected cells as described above.

[9] = test system: Q30R in genotype 1a NS5A replicon; test: Resistance mutant replicon assay, genotype 1a NS5A Q30R; type: cell-based, HCV; details: Hepatitis C virus, read-out: 1a Q30R (nM)
Method: as §2, §3

[10] = test system: Q30E in genotype 1a NS5A replicon; test: Resistance mutant replicon assay, genotype 1a NS5A Q30E; type: cell-based, HCV; details: Hepatitis C virus, read-out: 1a Q30E (nM)
How it was run: (§4)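 Renilla luciferase activity in lysed cells after 72 h with 3-fold serially diluted compound gave EC50 by non-linear regression. Cells were Huh-7-derived cured-51, transiently transfected with mutant replicon RNA (1a or 1b Pi-RLuc backbone; 3a NS5A in 1b chimera) made by site-directed mutagenesis.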

[11] = test system: Y93N in genotype 1a NS5A replicon; test: Resistance mutant replicon assay, genotype 1a NS5A Y93N; type: cell-based, HCV; details: Hepatitis C virus, read-out: 1a Y93N (nM)
How it was run: as §4

[12] = test system: Y93H in genotype 3a NS5A replicon; test: Resistance mutant replicon assay, genotype 3a NS5A Y93H; type: cell-based, HCV; details: Hepatitis C virus, read-out: 3a Y93H (nM)
How it was run: as §4

[13] = test system: NS5A chimeric genotype 2a JFH-1 replicon with genotype 2b MD2b-1 strain NS5A gene (M31); test: HCV genotype 2b NS5A chimeric replicon assay, transient (t); type: cell-based; details: Hepatitis C virus, 72 h, read-out: 2b (t) (nM)
How it was run: as §1

[14] = IV and PO single dose pharmacokinetic studies in SD rats; type: in vivo; details: Sprague-Dawley, rat, plasma, male SD rats, IV infusion 1 mg/kg, oral gavage 2 mg/kg, read-out: Rat % F
Method: IV and PO Single Dose Pharmacokinetic Studies in SD Rats: The pharmacokinetics of selected compounds was characterized in male Sprague-Dawley (SD) rats (250-300 g). In this study, two groups of naïve purebred SD rats (N=3 per group, fasted over night) received the selected compound either as an intravenous (IV) infusion (1 mg/kg over 30 minutes) via the jugular vein or by oral gavage (2 mg/kg). The intravenous (IV) dosing vehicle was 5% ethanol, 35% polyethylene glycol 400 (PEG 400) and 60% water pH 2.0. The oral dosing vehicle was 5% ethanol, 55% PEG 400 and 40% citrate buffer pH 2.2.
Serial blood samples (approximately 0.3 mL each) were collected from jugular vein or other suitable vein at specified time points. For the IV infusion group, the blood samples were collected predose and at 0.25, 0.48, 0.58, 0.75, 1.5, 3, 6, 8, 12 and 24 hours after the start of infusion. For the oral group, the blood samples were collected predose and at 0.25, 0.50, 1, 2, 4, 6, 8, 12 and 24 hours after dosing. The blood samples were collected into Vacutainer™ tubes containing EDTA-K3 as the anti-coagulant and were centrifuged at approximately 4° C. to obtain plasma. The plasma samples were stored at −20° C. until analysis by LC/MS/MS.
A bioanalytical method utilizing high performance liquid chromatography coupled to tandem mass spectrometry (LC/MS/MS) was developed for analysis of the selected compound in rat plasma. Detection was performed using selected reaction monitoring (SRM); Ions representing the precursor (M+H)^+ species was selected in quadrupole 1 (Q1) and collided with argon gas in the collision cell (Q2) to generate specific product ion, which was subsequently monitored by quadrupole 3 (Q3). Standard curve and quality control samples were prepared in male rat plasma and processed in the same way as the test samples to generate quantitative data.
Pharmacokinetic parameters were generated using non-compartmental pharmacokinetic analysis (Phoenix WinNonlin, version 6.3). Values below the lower limit of quantification (LLOQ) were assigned a value of zero if predose and treated as missing thereafter. Area under the curve (AUC) was calculated using the linear trapezoidal rule. The oral bioavailability (% F) was determined by comparison of the area under the curve (AUC) of the compound and/or a metabolite generated in plasma following oral administration to that generated following intravenous administration.

[15] = test system: Y93H in genotype 1a NS5A replicon; test: Resistance mutant replicon assay, genotype 1a NS5A Y93H; type: cell-based, HCV; details: Hepatitis C virus, read-out: 1a Y93H (nM)
How it was run: as §4

COC(=O)N[C@H](C(=O)N1[C@@H](C)CC[C@H]1c1ncc(-c2ccc3c(c2)COc2cc4c(ccc5nc([C@@H]6CC[C@H](C)N6C(=O)[C@@H](NC(=O)OC)[C@@H]6CCCOC6)[nH]c54)cc2-3)[nH]1)C(C)C [Example AJ, Methyl{(1S)-2-[(2S,5S)-2-methyl-5-(9-{2-[(2S,5S)-1-{(2S)-2-[(methoxycarbonyl)amino]-3-methylbutanoyl}-5-methylpyrrolidin-2-yl]-1H-imidazol-5-yl}-1,11-dihydroisochromeno[4′,3′:6,7]naphtho[1,2-d]imidazol-2-yl)pyrrolidin-1-yl]-2-oxo-1-[(3S)-tetrahydro-2H-pyran-3-yl]ethyl}carbamate]
EC50 [1]: 0.021 nM | EC50 [2]: 0.016 nM | EC50 [3]: 0.019 nM | EC50 [4]: 0.059 nM | EC50 [5]: 0.057 nM | EC50 [6]: 0.035 nM | EC50 [7]: 0.018 nM | EC50 [8]: 44 nM | EC50 [9]: 0.16 nM | EC50 [10]: 2.7 nM | EC50 [11]: 4.3 nM | EC50 [12]: 3.73 nM

COC(=O)N[C@H](C(=O)N1[C@@H](C)CC[C@H]1c1ncc(-c2ccc3c(c2)COc2cc4c(ccc5nc([C@@H]6CCCN6C(=O)[C@@H](NC(=O)OC)C6CCOCC6)[nH]c54)cc2-3)[nH]1)C(C)C [Comp 14, reference compound]
EC50 [1]: 0.025 nM | EC50 [2]: 0.025 nM | EC50 [3]: 0.01 nM | EC50 [4]: 0.053 nM | EC50 [13]: 0.036 nM | bioavailability [14]: 6.88% | EC50 [8]: 0.13 nM | EC50 [9]: 1.2 nM | EC50 [15]: 3.66 nM | EC50 [11]: 1.75 nM

COC(=O)N[C@H](C(=O)N1[C@@H](C)CC[C@H]1c1ncc(-c2ccc3c(c2)COc2cc4c(ccc5nc([C@@H]6CC[C@H](C)N6C(=O)[C@@H](NC(=O)OC)[C@H]6CCCOC6)[nH]c54)cc2-3)[nH]1)C(C)C [Example AI, Methyl{(1S)-2-[(2S,5S)-2-methyl-5-(9-{2-[(2S,5S)-1-{(2S)-2-[(methoxycarbonyl)amino]-3-methylbutanoyl}-5-methylpyrrolidin-2-yl]-1H-imidazol-5-yl}-1,11-dihydroisochromeno[4′,3′:6,7]naphtho[1,2-d]imidazol-2-yl)pyrrolidin-1-yl]-2-oxo-1-[(3R)-tetrahydro-2H-pyran-3-yl]ethyl}carbamate]
EC50 [1]: 0.018 nM | EC50 [2]: 0.014 nM | EC50 [3]: 0.017 nM | EC50 [4]: 0.041 nM | EC50 [5]: 0.058 nM | EC50 [6]: 0.028 nM | EC50 [7]: 0.012 nM | EC50 [8]: 21.4 nM | EC50 [9]: 0.208 nM | EC50 [10]: 2.11 nM | EC50 [11]: 4.05 nM | EC50 [12]: 2.84 nM
